# In patent publication US11485713B2, “Androgen receptor modulators and methods for their use” (ESSA Pharma, Inc., priority 2018, dated 2022):
# Legend:
# LNCaP ARE-Luc = assay: Luciferase assay in LNCaP cell lysates (LNCaP ARE-Luc); format: cell-based; conditions: Homo sapiens, Firefly Luciferase Assay System, read-out: LNCaP ARE-Luc % inhibition IC50 Ranges
# Method: Lysates were thawed on ice then collected into V-bottom 96-well tissue culture plates. Lysates were centrifuged at 4° C. for 5 minutes at 4000 rpm. To measure luminescence of LNCaP cell lysates the Firefly Luciferase Assay System (Promega) was employed, according to manufacturer's protocol. Relative luminescence units (RLU) in cell lysates were detected for 10 seconds using Promega GoMax-Multi Detection Luminometer (Promega).
# Statistical analyses were performed using GraphPad Prism (Version 6.01 for Windows; La Jolla, Calif., USA). Comparisons between treatment and control groups were compared using Two-Way ANOVA with post-hoc Dunnett's and Tukey's tests. Differences were considered statistically significant at P values less than 0.05. Densitometric quantification of relative AR levels was determined by Image.
# [1] = Microsomal stability assay, HLM; format: in vitro ADME; conditions: human, pH 7.4, 1 μM test compound, 0.5 mg/mL liver microsomes protein, 37° C., 0-60 min, read-out: HLM +/− NADPH: Clint (μL/min/mg protein)
# Source text: Microsomal Stability Assay: Microsomal stability assay is a widely used in vitro model to characterize the metabolic conversion by phase I enzymes, such as cytochrome P450 (CYP) enzymes. Since metabolism is known to be highly variable in different species, microsomal stability assay is commonly run in multiple species. Metabolic stability of testing compound can be evaluated using human, rat, mouse, or other animal liver or intestine microsomes to predict intrinsic clearance.
# The assay was carried out in 96-well microtiter plates at 37° C. Reaction mixtures (25 μL) contained a final concentration of 1 μM test compound, 0.5 mg/mL liver microsomes protein, and 1 mM NADPH and/or 1 mM UDPGA (with alamethicin) in 100 mM potassium phosphate, pH 7.4 buffer with 3 mM MgCl2. The incubation was done with N=1, but duplicate incubation at each time point can be prepared if necessary. At each of the time points (for example, 0, 15, 30, and 60 minutes), 150 μL of quench solution (100% acetonitrile with 0.1% formic acid) with internal standard was transferred to each well. Besides the zero minute controls, mixtures containing the same components except the NADPH can also be prepared as the negative control. Verapamil was included as a positive control to verify assay performance. Plates were sealed, vortexed, and centrifuged at 4° C. for 15 minutes at 4000 rpm. The supernatant is transferred to fresh plates for LC/MS/MS analysis.
# Summarized conditions: [Compound]=1 μM, [LM]=0.5 mg/mL, [NADPH]=1 mM and/or [UDPGA]=1 mM, Buffer=100 mM Potassium Phosphate, pH 7.4 with 3 mM MgCl2, Time=0, 15, 30, and 60 min, and Temperature=37° C.
# All samples were analyzed on LC/MS/MS using an AB Sciex API 4000 instrument, coupled to a Shimadzu LC-20AD LC Pump system. Analytical samples were separated using a Waters Atlantis T3 dC18 reverse phase HPLC column (20 mm×2.1 mm) at a flow rate of 0.5 mL/min. The mobile phase consisted of 0.1% formic acid in water (solvent A) and 0.1% formic acid in 100% acetonitrile (solvent B).
# The extent of metabolism is calculated as the disappearance of the test compound, compared to the 0-min time incubation. Initial rates are calculated for the compound concentration and used to determine half-life (t½) values and subsequently, the intrinsic clearance (Clint). Clint=(0.693)(1/t½ (min))(g of liver/kg of body weight)(mL incubation/mg of microsomal protein)(45 mg of microsomal protein/g of liver weight)
IC50 (LNCaP ARE-Luc) [nM],microsomal CLint at 1 μM [1] [µL/min/mg],Structure (SMILES)
≥ 250,–,"CC(C)(c1ccc(OCC(=O)CS(C)(=O)=O)cc1)c1cc(Cl)c(OC[C@H](O)CCl)c(Cl)c1 [A54(S), (S)-1-(4-(2-(3,5-dichloro-4-(3-chloro-2-hydroxypropoxy)phenyl)propan-2-yl)phenoxy)-3-(methylsulfonyl)propan-2-one]"
≥ 250,≥ 48,COc1cc(OCCCCl)ccc1C(C)(C)c1ccc(OCC(=O)CNS(C)(=O)=O)cc1 [Compound A4]
≥ 250,≥ 48,CC(C)(c1ccc(OCC(=O)CNS(C)(=O)=O)cc1)c1ccc(OCCCCl)cc1Cl [Compound A6]
< 100,≥ 48,CC(C)(c1ccc(OCC(=O)CNS(C)(=O)=O)cc1)c1ccc(OCCCCl)c(C#N)c1 [Compound A7]
≥ 250,≥ 48,COc1cc(C(C)(C)c2ccc(OCCCCl)cc2)ccc1OCC(=O)CNS(C)(=O)=O [Compound A11]
≥ 250,≥ 48,COc1cc(OCC(=O)CNS(C)(=O)=O)ccc1C(C)(C)c1ccc(OCCCCl)cc1 [Compound A12]
≥ 250,≥ 48,CC(C)(c1ccc(OCCCCl)cc1)c1ccc(OCC(=O)CNS(C)(=O)=O)cc1Cl [Compound A14]
≥ 250,≥ 48,CC(C)(c1ccc(OCCCCl)cc1)c1ccc(OCC(=O)CNS(C)(=O)=O)c(C#N)c1 [Compound A15]
≥ 250,≥ 48,CS(=O)(=O)NCC(=O)COc1cccc(Cc2ccc(Cl)c(OCCCCl)c2Cl)c1 [Compound A24]
< 100,≥ 48,CC(CCl)COc1c(Cl)cc(C(C)(C)c2ccc(OCC(=O)CNS(C)(=O)=O)cc2)cc1Cl (stereo not drawn) [Compound A32]
< 100,≥ 48,"CC(C)(c1ccc(OCC(=O)CNS(C)(=O)=O)cc1)c1cc(Cl)c(OCCCl)c(Cl)c1 [Compound A33, N-(3-(4-(2-(3,5-dichloro-4-(2-chloroethoxy)phenyl)propan-2-yl)phenoxy)-2-oxopropyl)methanesulfonamide]"
100 to 250,≥ 48,CC(C)(c1ccc(OCC(=O)CNS(C)(=O)=O)cc1)c1cc(Cl)c(NCCCCl)c(Cl)c1 [Compound A35]
100 to 250,≥ 48,CN(CCCCl)c1c(Cl)cc(C(C)(C)c2ccc(OCC(=O)CNS(C)(=O)=O)cc2)cc1Cl [Compound A36]
≥ 250,≥ 48,CC(C)(c1ccc(OCC(=O)CNS(C)(=O)=O)cc1)c1cc(Cl)c(OCc2ccc(Cl)cc2)c(Cl)c1 [Compound A38]
< 100,≥ 48,"CS(=O)(=O)NCC(=O)COc1ccc(C2(c3cc(Cl)c(OCCCCl)c(Cl)c3)COC2)cc1 [Compound A43, N-(3-(4-(3-(3,5-dichloro-4-(3-chloropropoxy)phenyl)oxetan-3-yl)phenoxy)-2-oxopropyl)methanesulfonamide]"
≥ 250,12 to 48,CC(C)(c1ccc(OCC(=O)N2CCN(S(C)(=O)=O)CC2)cc1)c1cc(Cl)c(OCCCCl)c(Cl)c1 [Compound A44]
≥ 250,< 12,CC(C)(c1ccc(NC(=O)CCNS(C)(=O)=O)cc1)c1cc(Cl)c(OCCCCl)c(Cl)c1 [Compound A45]
≥ 250,12 to 48,"CC(C)(c1ccc(CNC(=O)CNS(C)(=O)=O)cc1)c1cc(Cl)c(OCCCCl)c(Cl)c1 [Compound A46, N-(4-(2-(3,5-dichloro-4-(3-chloropropoxy)phenyl)propan-2-yl)benzyl)-2-(methylsulfonamido)acetamide]"
≥ 250,≥ 48,CN(C)C(=O)NCc1ccc(C(C)(C)c2cc(Cl)c(OCCCCl)c(Cl)c2)cc1 [Compound A47]
100 to 250,≥ 48,CC(C)(c1ccc(OCC(=O)CNS(C)(=O)=O)c(F)c1)c1cc(Cl)c(OCCCCl)c(Cl)c1 [Compound A48]

IC50 (LNCaP ARE-Luc) [nM],microsomal CLint at 1 μM [1] [µL/min/mg],Structure (SMILES)
< 100,≥ 48,"CC(O)(CCl)COc1c(Cl)cc(C(C)(C)c2ccc(OCC(=O)CNS(C)(=O)=O)cc2)cc1Cl (stereo not drawn) [Compound A52, N-(3-(4-(2-(3,5-dichloro-4-(3-chloro-2-hydroxy-2-methylpropoxy)phenyl)propan-2-yl)phenoxy)-2-oxopropyl)methanesulfonamide]"
≥ 250,–,"CC(O)(CCl)COc1c(Cl)cc(C(C)(C)c2ccc(OCC(=O)CS(C)(=O)=O)cc2)cc1Cl (stereo not drawn) [Compound A53, 1-(4-(2-(3,5-dichloro-4-(3-chloro-2-hydroxy-2-methypropoxy)phenyl)propan-2-yl)phenoxy)-3-(methylsulfonyl)propan-2-one]"
≥ 250,12 to 48,CC(C)(c1ccc(OCC(=O)NCCNS(C)(=O)=O)cc1)c1cc(Cl)c(OCCCCl)c(Cl)c1 [Compound A62]
< 100,≥ 48,CC(C)(Oc1ccc(C(C)(C)c2cc(Cl)c(OCCCCl)c(Cl)c2)cc1)C(=O)CNS(C)(=O)=O [Compound A63]
≥ 250,< 12,CC(C)(NS(C)(=O)=O)C(=O)COc1ccc(C(C)(C)c2cc(Cl)c(OCCCCl)c(Cl)c2)cc1 [Compound A64]
≥ 250,≥ 48,CC(=O)NCC(=O)COc1ccc(C(C)(C)c2cc(Cl)c(OCCCCl)c(Cl)c2)cc1 [Compound A65]
≥ 250,≥ 48,CN(CC(=O)COc1ccc(C(C)(C)c2cc(Cl)c(OCCCCl)c(Cl)c2)cc1)S(C)(=O)=O [Compound A69]
≥ 250,≥ 48,CC(C)N(c1ccc(OCC(=O)CNS(C)(=O)=O)cc1)c1cc(Cl)c(OCCCCl)c(Cl)c1 [Compound A70]
≥ 250,≥ 48,"CC(=O)N(c1ccc(OCC(=O)CNS(C)(=O)=O)cc1)c1cc(Cl)c(OCCCCl)c(Cl)c1 [Compound A71, N-(3,5-dichloro-4-(3-chloropropoxy)phenyl)-N-(4-(3-(methylsulfonamido)-2-oxopropoxy)phenyl)acetamide]"
≥ 250,–,"CC(=O)COc1ccc(C(C)(C)c2cc(Cl)c(OCCCCl)c(Cl)c2)cc1 [Compound A74, 1-(4-(2-(3,5-dichloro-4-(3-chloropropoxy)phenyl)propan-2-yl)phenoxy)propan-2-one]"
≥ 250,–,CC(C)(c1ccc(OC(F)(F)C(=O)C(N)=O)cc1)c1cc(Cl)c(OCCCCl)c(Cl)c1 [Compound A92]
≥ 250,–,CC(=O)C(=O)Nc1ccc(C(C)(C)c2cc(Cl)c(OCC(C)(O)CCl)c(Cl)c2)cc1 (stereo not drawn) [Compound A96]
100 to 250,–,COC(=O)C(OC)C(O)(O)C(F)(F)Oc1ccc(C(C)(C)c2cc(Cl)c(OCCCCl)c(Cl)c2)cc1 (stereo not drawn) [Compound A97]
100 to 250,–,"CC(C)(c1ccc(OC(F)(F)C(=O)CNS(C)(=O)=O)cc1)c1cc(Cl)c(OCCCCl)c(Cl)c1 [Compound A99, N-(3-(4-(2-(3,5-dichloro-4-(3-chloropropoxy)phenyl)propan-2-yl)phenoxy)-3,3-difluoro-2-oxopropyl)methanesulfonamide]"
≥ 250,–,"COCC(=O)C(F)(F)Oc1ccc(C(C)(C)c2cc(Cl)c(OCCCCl)c(Cl)c2)cc1 [Compound A100, 1-(4-(2-(3,5-dichloro-4-(3-chloropropoxy)phenyl)propan-2-yl)phenoxy)-1,1-difluoro-3-methoxypropan-2-one]"
≥ 250,–,CCOC(=O)CC(=O)C(F)(F)Oc1ccc(C(C)(C)c2cc(Cl)c(OCCCCl)c(Cl)c2)cc1 [Compound A101]
≥ 250,–,CC(C)(c1ccc(OC(F)(F)C(=O)CS(C)(=O)=O)cc1)c1cc(Cl)c(OCCCCl)c(Cl)c1 [Compound A102]
< 100,–,CC(=O)Oc1ccc(C(C)(C)c2cc(Cl)c(OCCCCl)c(Cl)c2)cc1 [Compound A103]
≥ 250,–,CC(=O)N(CC(=O)COc1ccc(C(C)(C)c2cc(Cl)c(OCCCCl)c(Cl)c2)cc1)S(C)(=O)=O [Compound A104]
